According to patent US7547804B2, “Compounds, compositions, and methods employing same” (Myriad Genetics, Inc., priority 2002, dated 2009):

Test system: LNCaP cell lines
Experiment: WST-1 Cell Proliferation and Viability Assay
Format: cell-based
Conditions: Homo sapiens, LNCaP cells
Description: WST-1 Cell Proliferation and Viability Assay
Cell proliferation and cell viability was assessed using the tetrazolium salt WST-1 (Roche Applied Science, Indianapolis Ind.). The assay is based on the cleavage of WST-1 (light red) by mitochondrial dehydrogenase causing the formation of formazan (dark red), which can be measured on an optical density (O.D.) reader. LNCaP cell lines were plated in 96 well tissue culture plates (Corning Costar, N.Y.) at a density of 5000 cells/well in 150 μl complete media phenol-red free (RPMI-1640 [Invitrogen, Carlsbad Calif.] and 10% fetal calf serum). This plate is termed the assay plate. After the cells are plated, they are then incubated overnight at 37 degrees Celsius in a humidified chamber containing 5% CO2 (incubator).
Compounds are added to the assay plate in 50 μl of complete media and 0.4% DMSO (v:v) making the final DMSO concentration 0.1%. The assay plate is then returned to the incubator for 18-72 hours. WST-1 reagent is then added (20 μl/well) and the plate is placed on an ELISA plate shaker for 30 minutes at room temperature. Plates are then transferred back to the incubator for an additional 3 hours. Plates are then read on a 96 well plate O.D. reader at A490-A650.

[1] = compound incubation 18-72 hours
[2] = flagged "Estimated": based on actual data at different concentrations

Compound | EC50 [1] [µM] | EC50 [2] [µM]
Cc1ccc(OCCc2cccc(C(F)(F)F)c2)cc1NC(=O)c1cc(Cl)ccc1O [Compound 333] | 2.6 | 
COc1cccc(CCOc2ccc(Cl)cc2NC(=O)c2cc(Cl)ccc2O)c1 [Compound 112] | 2 | 
Cc1ccc(NC(=O)c2cc(Cl)ccc2O)c(OCCc2ccccc2C(F)(F)F)c1 [Compound 171] | 5 | 
O=C(NCCc1ccc(OCc2ccccc2)c(OCc2ccccc2)c1)c1cc(Cl)ccc1O [Compound 69] | 14 | 
COc1ccc(Cl)cc1C(=O)N(C)c1cccc(OCCc2ccccc2)c1 [Compound 215] |  | 45
CC(COc1cccc(NC(=O)c2cc(Cl)ccc2O)c1)c1ccccc1 (centres unmarked) [Compound 19] | 7 | 
COC(=O)C1CCCN(c2ccc(C(F)(F)F)cc2NC(=O)c2cc(Cl)ccc2O)C1 (centres unmarked) [Compound 315] | 1.2 | 
O=C(NCc1cccc(-c2ccccc2)c1)c1cc(F)ccc1O [Compound 190] | 35 | 
O=C(Nc1cc(C(F)(F)F)cc(C(F)(F)F)c1)c1cc(Cl)ccc1O [Compound 169] | 2 | 
CCOc1cc(CNc2cccc(NC(=O)c3cc(Cl)ccc3O)c2)ccc1OC [Compound 20] | 24 | 
Cc1ccccc1COc1cccc(NC(=O)c2cc(Cl)ccc2O)c1 [Compound 84] | 14 | 
Cc1cc(C)c(CCOc2ccc(C(F)(F)F)cc2NC(=O)c2cc(Cl)ccc2O)c(C)c1 [Compound 135] | 0.8 | 
O=C(NCc1ccc(OCCc2ccccc2)cc1)c1cc(Cl)ccc1O [Compound 53] | 23 | 
Cc1ccccc1COc1ccc(C(F)(F)F)cc1NC(=O)c1cc(Cl)ccc1O [Compound 312] | 0.85 | 
O=C(Nc1cccc(OCc2ccccc2)c1)c1cc(Cl)ccc1O [Compound 15] | 12 | 
COc1ccccc1CCOc1cccc(NC(=O)c2cc(-c3cc4ccccc4s3)ccc2O)c1 [Compound 354] | 7.3 | 
O=C(NCc1ccc(Oc2ccccc2)cc1)c1cc(Cl)ccc1O [Compound 26] | 24 | 
O=C(Nc1cc(C(F)(F)F)ccc1OCCc1cccc(Cl)c1)c1cc(Cl)ccc1O [Compound 248] | 0.5 | 
O=C(Nc1cc(C(F)(F)F)ccc1OCCc1ccc(Cl)c(Cl)c1)c1cc(Cl)ccc1O [Compound 249] | 0.9 | 
O=C(Nc1cc(C(F)(F)F)ccc1OCCc1ccsc1)c1cc(Cl)ccc1O [Compound 245] | 0.9 | 
Nc1cc(Cl)cc(C(=O)Nc2cc(Cl)ccc2OCCc2ccccc2)c1O [Compound 330] | 19.7 | 
COc1ccccc1CCOc1cccc(NC(=O)c2cc(-c3ccccc3Cl)ccc2O)c1 [Compound 350] | 10 | 
Cc1ccccc1COc1ccc(Cl)cc1NC(=O)c1cc(Cl)ccc1O [Compound 313] | 3 | 
Cc1ccc(CNC(=O)c2cc(Cl)ccc2O)cc1-c1ccccc1 [Compound 291] |  | 30
O=C(NCc1cccc(-c2ccccc2)c1)c1ccccc1O [Compound 199] |  | 47
CCCOCCOc1ccc(C(F)(F)F)cc1NC(=O)c1cc(Cl)ccc1O [Compound 301] | 0.67 | 
Cc1cccc(-c2cccc(CNC(=O)c3cc(Cl)ccc3O)c2)c1 [Compound 145] | 17 | 

Compound | EC50 [1] [µM] | EC50 [2] [µM]
O=C(Nc1cccc(OCCc2ccccc2)c1)c1cc(Cl)cc([N+](=O)[O-])c1O [Compound 123] |  | 30
COc1ccccc1CCOc1ccc(Cl)cc1NC(=O)c1cc(Cl)ccc1O [Compound 133] | 3 | 
O=C(Nc1cc(C(F)(F)F)ccc1OCCc1ccccc1)c1cc(Cl)ccc1O [Compound 104] | 0.8 | 
O=C(Nc1cc(C(F)(F)F)cc(Cl)c1OCCc1ccc(Cl)cc1)c1cc(Cl)ccc1O [Compound 263] | 2 | 
O=C(Nc1ccc(OCCc2ccccc2)cc1)c1cc(Cl)ccc1O [Compound 63] | 20 | 
O=C(Nc1cccc(NCc2ccccc2)c1)c1cc(Cl)ccc1O [Compound 28] | 31 | 
O=C(NCc1cccc(C(F)(F)F)c1)c1cc(Cl)ccc1O [Compound 121] |  | 30
Cc1c(NC(=O)c2cc(Cl)ccc2O)cccc1OCCc1ccccc1 [Compound 48] | 7 | 
Cc1cccc(CCOc2cccc(NC(=O)c3cc(Cl)ccc3O)c2)c1 [Compound 57] | 15 | 
O=C(Nc1cc(OCCc2ccccc2)ccc1Cl)c1cc(Cl)ccc1O [Compound 27] | 4 | 
O=C(Nc1cccc([N+](=O)[O-])c1)c1cc(Cl)ccc1O [Compound 23] | 4 | 
O=C(NCCc1cccc(OCc2ccccc2)c1)c1cc(Cl)ccc1O [Compound 90] | 18 | 
O=C(NCc1ccccc1OCCc1ccccc1)c1cc(Cl)ccc1O [Compound 116] |  | 30
O=C(Nc1cccc(OCCc2ccccc2)c1)c1cc(-c2ccc(F)cc2F)ccc1O [Compound 226] | 7 | 
CCN(CC)CCOc1cccc(CNc2cccc(NC(=O)c3cc(Cl)ccc3O)c2)c1 [Compound 30] | 50 | 
O=C(Nc1cc(Cl)ccc1OCCc1ccccc1)c1cc(Cl)cc([N+](=O)[O-])c1O [Compound 294] | 19 | 
CC(C)c1cccc(C(=O)Nc2cccc(OCCc3ccccc3)c2)c1O [Compound 201] | 33 | 
CN(C)c1ccc(CCOc2cccc(NC(=O)c3cc(Cl)ccc3O)c2)cc1 [Compound 47] | 4 | 
CC(C)c1ccccc1-c1cccc(CNC(=O)c2cc(Cl)ccc2O)c1 [Compound 174] | 11 | 
COc1ccccc1CCOc1cccc(NC(=O)c2cc(Br)cc(F)c2O)c1 [Compound 346] | 28 | 
COc1ccccc1CCOc1cccc(NC(=O)c2cc(Br)ccc2O)c1 [Compound 194] | 9 | 
Cc1ccc(NC(=O)c2cc(Cl)ccc2O)c(OCCc2ccccc2)c1 [Compound 150] | 6 | 
Cc1ccccc1CCOc1ccc(Cl)cc1NC(=O)c1cc(Cl)ccc1O [Compound 76] | 1 | 
O=C(Nc1cccc(Cl)c1OCCc1ccccc1)c1cc(Cl)ccc1O [Compound 154] | 4 | 
Cc1ccc(OCCc2cccc(C(F)(F)F)c2)c(NC(=O)c2cc(Cl)ccc2O)c1 [Compound 157] | 2 | 
O=C(Nc1ccc(Cl)cc1OCCc1ccc(Cl)cc1)c1cc(Cl)ccc1O [Compound 250] | 2 | 
Cc1cc(C)cc(CNC(=O)c2cc(Cl)ccc2O)c1 [Compound 323] |  | 30

Compound | EC50 [1] [µM] | EC50 [2] [µM]
O=C(NCCc1ccc(Oc2ccccc2)cc1)c1cc(Cl)ccc1O [Compound 54] | 13 | 
O=C(Nc1cccc(Cl)c1OCCc1ccccc1C(F)(F)F)c1cc(Cl)ccc1O [Compound 137] | 5 | 
O=CNc1cccc(C(=O)Nc2cccc(OCCc3ccccc3)c2)c1O [Compound 5] | 5 | 
O=CNc1cc(Cl)cc(C(=O)Nc2cccc(OCCc3ccccc3)c2)c1O [Compound 124] | 8 | 
COc1ccccc1CCOc1cccc(NC(=O)c2cc(-c3ccc4ccccc4c3)ccc2O)c1 [Compound 347] | 6 | 
COc1ccc(O)c(C(=O)Nc2cccc(OCCc3ccccc3OC)c2)c1 [Compound 186] | 22 | 
O=C(Nc1cc(C(F)(F)F)ccc1OCCC(F)(F)F)c1cc(Cl)ccc1O [Compound 271] | 0.9 | 
O=C(Nc1cc(OC2CCCCC2c2ccccc2)ccc1Cl)c1cc(Cl)ccc1O (centres unmarked) [Compound 281] | 3 | 
O=C(Nc1cc(C(F)(F)F)ccc1NCC(c1ccccc1)c1ccccc1)c1cc(Cl)ccc1O [Compound 275] | 3 | 
COc1ccc(C(=O)Nc2cccc(OCCc3ccccc3OC)c2)c(O)c1 [Compound 182] | 23 | 
O=C(Nc1cc(C(F)(F)F)ccc1OCCc1ccc(C(F)(F)F)cc1)c1cc(Cl)ccc1O [Compound 160] | 0.7 | 
CN(CCc1ccccn1)c1ccc(NC(=O)c2cc(Cl)ccc2O)c(OCCc2cccc(C(F)(F)F)c2)c1 [Compound 376] | 7.3 | 
O=C(NCc1cccc(-c2ccccc2)c1)c1cccc(-c2ccccc2)c1O [Compound 218] |  | 32
O=C(Nc1cc(Cl)ccc1OCCc1ccccc1)c1cnc2cc(C(F)(F)F)ccc2c1O [Compound 166] | 10 | 
Cc1ccc(COc2ccc(Cl)cc2NC(=O)c2cc(Cl)ccc2O)cc1 [Compound 306] | 2 | 
O=C(Nc1cc(C(F)(F)F)ccc1OCCc1cccs1)c1cc(Cl)ccc1O [Compound 244] | 0.9 | 
CN1CCN(c2ccc(C(F)(F)F)cc2NC(=O)c2cc(Cl)ccc2O)CC1 [Compound 309] | 17.4 | 
O=C(Nc1cc(C(F)(F)F)ccc1OCc1cccc(OC(F)(F)F)c1)c1cc(Cl)ccc1O [Compound 334] | 9 | 
CN(C)c1ccc(CCOc2ccc(Cl)cc2NC(=O)c2cc(Cl)ccc2O)cc1 [Compound 108] | 3 | 
O=C(Nc1cc(Cl)ccc1OCCc1ccccc1C(F)(F)F)c1cc(Cl)ccc1O [Compound 82] | 0.7 | 
O=C(Nc1ccccc1C(F)(F)F)c1cc(Cl)ccc1O [Compound 58] | 10 | 
COc1ccccc1CCOc1cccc(NC(=O)c2cc(-c3ccsc3)ccc2O)c1 [Compound 335] | 13 | 
COC(=O)[C@H]1CCCN1c1ccc(NC(=O)c2cc(Cl)ccc2O)c(OCCc2cccc(C(F)(F)F)c2)c1 [Compound 359] | 3.1 | 
COC(=O)c1ccc(OCCc2ccccc2)c(NC(=O)c2cc(Cl)ccc2O)c1 [Compound 325] | 3.3 | 
O=CNc1cc(Cl)cc(C(=O)Nc2cc(Cl)ccc2OCCc2ccccc2)c1O [Compound 331] | 12.4 | 
O=C(NCc1cccc(-c2ccccc2)c1)c1ccc(F)cc1O [Compound 189] | 30 | 
